Source: patent publication US20240270821A1, “GIP/GLP1/GCG TRI-RECEPTOR AGONISTS AND USES THEREOF” (priority 2023, published 2024)
Where two headings read alike, the source gives them in different places.

Legend:
Assay type in all cases: cell-based
[1] = biological target: T1, hGIPR (Homo sapiens, UniProt P48546); assay: Functional cAMP activation in the presence of 0.1% casein (no HSA); conditions: read-out: Relative cAMP EC50, hGIPR;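 note: intracellular cAMP rise after 30 min at 37 °C read by HTRF against a standard curve, scaled between buffer alone (0%) and top control ligand concentration (100%), four-parameter fit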
T1 sequence (P48546 22-466): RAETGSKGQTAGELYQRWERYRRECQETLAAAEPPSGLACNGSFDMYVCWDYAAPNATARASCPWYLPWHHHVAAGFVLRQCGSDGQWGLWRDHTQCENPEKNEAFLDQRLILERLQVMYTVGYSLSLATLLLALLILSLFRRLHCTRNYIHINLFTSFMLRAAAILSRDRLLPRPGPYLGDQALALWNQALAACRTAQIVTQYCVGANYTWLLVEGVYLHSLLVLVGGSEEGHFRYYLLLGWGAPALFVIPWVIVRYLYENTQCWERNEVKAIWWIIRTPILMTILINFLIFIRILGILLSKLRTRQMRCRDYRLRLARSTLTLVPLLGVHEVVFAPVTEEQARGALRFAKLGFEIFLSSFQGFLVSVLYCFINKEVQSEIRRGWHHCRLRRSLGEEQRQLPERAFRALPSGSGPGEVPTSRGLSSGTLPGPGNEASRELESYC

[2] = biological target: T2, hGLP-1R (Homo sapiens, UniProt P43220); assay: Functional cAMP activity in the presence of 1% HSA; conditions: read-out: cAMP Rel EC50, hGLP-1R
T2 sequence (P43220 24-463): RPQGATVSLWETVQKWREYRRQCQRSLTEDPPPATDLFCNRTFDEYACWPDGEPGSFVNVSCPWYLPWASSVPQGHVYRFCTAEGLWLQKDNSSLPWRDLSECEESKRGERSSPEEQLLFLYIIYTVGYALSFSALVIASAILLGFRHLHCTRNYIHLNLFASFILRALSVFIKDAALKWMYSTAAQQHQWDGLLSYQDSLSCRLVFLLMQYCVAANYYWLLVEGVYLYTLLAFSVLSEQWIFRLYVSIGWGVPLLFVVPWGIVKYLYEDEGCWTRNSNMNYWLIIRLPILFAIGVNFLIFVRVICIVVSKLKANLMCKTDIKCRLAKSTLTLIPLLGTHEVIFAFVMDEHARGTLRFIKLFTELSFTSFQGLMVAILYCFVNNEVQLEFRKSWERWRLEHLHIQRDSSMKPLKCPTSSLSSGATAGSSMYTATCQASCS

[3] = biological target: T2, hGLP-1R; assay: Functional cAMP activation in the presence of 0.1% casein (no HSA); conditions: read-out: Relative cAMP EC50, hGLP-1R;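 note: intracellular cAMP rise after 30 min at 37 °C read by HTRF, normalized between buffer only (0%) and maximal control ligand (100%), four-parameter variable-slope fit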
[4] = biological target: T1, hGIPR; assay: Functional cAMP activity in the presence of 1% HSA; conditions: read-out: cAMP Rel EC50, hGIPR
[5] = biological target: hGcgR (Homo sapiens, UniProt P47871); assay: Functional cAMP activation in the presence of 0.1% casein (no HSA); conditions: read-out: Relative cAMP EC50, hGcgR;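 note: intracellular cAMP rise after 30 min at 37 °C, read by HTRF against a cAMP standard curve, scaled from buffer only (0%) to maximal control ligand response (100%)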
hGcgR, sequence (P47871 26-477): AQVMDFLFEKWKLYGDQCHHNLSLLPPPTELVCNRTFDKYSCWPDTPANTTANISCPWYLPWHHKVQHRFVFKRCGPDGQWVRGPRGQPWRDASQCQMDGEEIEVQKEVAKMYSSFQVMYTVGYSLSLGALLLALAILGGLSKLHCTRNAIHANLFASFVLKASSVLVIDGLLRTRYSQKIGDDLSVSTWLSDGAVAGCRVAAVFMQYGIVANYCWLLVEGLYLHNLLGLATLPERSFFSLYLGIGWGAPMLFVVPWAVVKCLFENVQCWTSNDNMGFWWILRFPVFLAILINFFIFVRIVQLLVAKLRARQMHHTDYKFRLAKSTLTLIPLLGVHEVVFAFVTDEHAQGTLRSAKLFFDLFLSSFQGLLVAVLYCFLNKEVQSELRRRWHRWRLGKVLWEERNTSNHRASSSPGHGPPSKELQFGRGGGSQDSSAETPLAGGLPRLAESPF

[6] = biological target: human GcgR (Homo sapiens, UniProt P47871); assay: Functional cAMP activity in the presence of 1% HSA; conditions: read-out: cAMP Rel EC50, hGcgR
human GcgR, sequence (P47871 26-477): as above

[7] = in the presence of 0.1% casein (no HSA), geometric mean of relative EC50
[8] = HEK-293 clonal cell line, 1% HSA, geometric mean of relative EC50

CC[C@H](C)[C@H](NC(=O)[C@H](CC(C)C)NC(=O)[C@](C)(Cc1ccc(O)cc1)NC(=O)[C@@H](CCC(=O)O)NC(=O)[C@@H](NC(=O)[C@H](Cc1ccccc1)NC(=O)[C@H](CCC(=O)O)NC(=O)C(C)(C)NC(=O)[C@H](C)NC(=O)[C@H](C)NC(=O)[C@H](CCCCNC(=O)COCCOCCNC(=O)CC[C@H](NC(=O)CCCCCCCCCCCCCCCCC(=O)O)C(=O)O)NC(=O)[C@H](CCCN)NC(=O)[C@H](CC(=O)O)NC(=O)[C@H](CC(C)C)NC(=O)[C@](C)(CC(C)C)NC(=O)[C@@H](NC(=O)[C@](C)(CO)NC(=O)[C@H](Cc1ccncc1)NC(=O)[C@H](CC(=O)O)NC(=O)[C@H](CO)NC(=O)[C@@H](NC(=O)[C@](C)(Cc1ccccc1F)NC(=O)[C@@H](NC(=O)CNC(=O)[C@H](CCC(N)=O)NC(=O)C(C)(C)NC(=O)[C@@H](N)Cc1ccc(O)cc1)[C@@H](C)O)[C@@H](C)O)[C@@H](C)CC)[C@@H](C)CC)C(=O)N[C@@H](CCC(=O)O)C(=O)NCC(=O)NCC(=O)N1CCC[C@H]1C(=O)N[C@@H](CO)C(=O)N[C@@H](CO)C(=O)NCC(=O)N[C@@H](C)C(=O)N1CCC[C@H]1C(=O)N1CCC[C@H]1C(=O)N1CCC[C@H]1C(=O)N[C@@H](CO)C(=O)NCC(=O)N[C@@H](CO)C(N)=O [Example 671]
EC50 [1]: 0.00807 nM
EC50 [2]: 17.6 nM
EC50 [3]: 0.166 nM
EC50 [4]: 0.657 nM
EC50 [5]: 1.81 nM
EC50 [6]: 152 nM

CC[C@H](C)[C@H](NC(=O)[C@H](CC(C)C)NC(=O)[C@](C)(Cc1ccc(O)cc1)NC(=O)[C@@H](CCC(=O)O)NC(=O)[C@@H](NC(=O)[C@H](Cc1ccccc1)NC(=O)[C@H](CCC(=O)O)NC(=O)C(C)(C)NC(=O)[C@H](C)NC(=O)[C@H](C)NC(=O)[C@H](CCCCNC(=O)COCCOCCNC(=O)CC[C@H](NC(=O)CCCCCCCCCCCCCCCCC(=O)O)C(=O)O)NC(=O)[C@H](CCCN)NC(=O)[C@H](CC(=O)O)NC(=O)[C@H](CC(C)C)NC(=O)[C@](C)(CC(C)C)NC(=O)[C@@H](NC(=O)[C@](C)(CO)NC(=O)[C@H](Cc1ccncc1)NC(=O)[C@H](CC(=O)O)NC(=O)[C@H](CO)NC(=O)[C@@H](NC(=O)[C@](C)(Cc1ccccc1F)NC(=O)[C@@H](NC(=O)CNC(=O)[C@H](CCC(N)=O)NC(=O)C(C)(C)NC(=O)[C@@H](N)Cc1ccc(O)cc1)[C@@H](C)O)[C@@H](C)O)[C@@H](C)CC)[C@@H](C)CC)C(=O)N[C@@H](CCC(=O)O)C(=O)NCC(=O)NCC(=O)N1CCC[C@H]1C(=O)N[C@@H](CO)C(=O)N[C@@H](CO)C(=O)NCC(=O)N[C@@H](C)C(=O)N1CCC[C@H]1C(=O)N1CCC[C@H]1C(=O)N1CCC[C@H]1C(=O)N[C@@H](CO)C(=O)NCC(=O)N[C@H](C(=O)NCC(=O)N[C@@H](CCC(=O)O)C(N)=O)[C@@H](C)O [Example 689]
EC50 [1]: 0.0104 nM
EC50 [2]: 25.1 nM
EC50 [3]: 0.214 nM
EC50 [4]: 0.951 nM
EC50 [5]: 1.81 nM
EC50 [6]: 182 nM

CC[C@H](C)[C@H](NC(=O)[C@H](CC(C)C)NC(=O)[C@](C)(Cc1ccc(O)cc1)NC(=O)[C@@H](CCC(=O)O)NC(=O)[C@@H](NC(=O)[C@H](Cc1ccccc1)NC(=O)[C@H](CCC(=O)O)NC(=O)C(C)(C)NC(=O)[C@H](C)NC(=O)[C@H](C)NC(=O)[C@H](CCCCNC(=O)COCCOCCNC(=O)CC[C@H](NC(=O)CCCCCCCCCCCCCCCCC(=O)O)C(=O)O)NC(=O)[C@H](CCCN)NC(=O)[C@H](CC(=O)O)NC(=O)[C@H](CC(C)C)NC(=O)[C@](C)(CC(C)C)NC(=O)[C@@H](NC(=O)[C@](C)(CO)NC(=O)[C@H](Cc1ccncc1)NC(=O)[C@H](CC(=O)O)NC(=O)[C@H](CO)NC(=O)[C@@H](NC(=O)[C@](C)(Cc1ccccc1F)NC(=O)[C@@H](NC(=O)CNC(=O)[C@H](CCC(N)=O)NC(=O)C(C)(C)NC(=O)[C@@H](N)Cc1ccc(O)cc1)[C@@H](C)O)[C@@H](C)O)[C@@H](C)CC)[C@@H](C)CC)C(=O)N[C@@H](CCC(=O)O)C(=O)NCC(=O)NCC(=O)N1CCC[C@H]1C(=O)N[C@@H](CO)C(=O)N[C@@H](CO)C(=O)NCC(=O)N[C@@H](C)C(=O)N1CCC[C@H]1C(=O)N1CCC[C@H]1C(=O)N1CCC[C@H]1C(=O)N[C@@H](CO)C(=O)NCC(=O)N[C@@H](CO)C(=O)N[C@@H](CCC(=O)O)C(N)=O [Example 702]
EC50 [1]: 0.0116 nM
EC50 [2]: 28.4 nM
EC50 [3]: 0.243 nM
EC50 [4]: 1.25 nM
EC50 [5]: 1.5 nM
EC50 [6]: 196 nM

CC[C@H](C)[C@H](NC(=O)[C@H](CC(C)C)NC(=O)[C@](C)(Cc1ccc(O)cc1)NC(=O)[C@@H](CCC(=O)O)NC(=O)[C@@H](NC(=O)[C@H](Cc1ccccc1)NC(=O)[C@H](CCC(=O)O)NC(=O)C(C)(C)NC(=O)[C@H](C)NC(=O)[C@H](C)NC(=O)[C@H](CCCCNC(=O)COCCOCCNC(=O)CC[C@H](NC(=O)CCCCCCCCCCCCCCCCC(=O)O)C(=O)O)NC(=O)[C@H](CCCN)NC(=O)[C@H](CC(=O)O)NC(=O)[C@H](CC(C)C)NC(=O)[C@](C)(CC(C)C)NC(=O)[C@@H](NC(=O)[C@](C)(CO)NC(=O)[C@H](Cc1ccncc1)NC(=O)[C@H](CC(=O)O)NC(=O)[C@H](CO)NC(=O)[C@@H](NC(=O)[C@](C)(Cc1ccccc1F)NC(=O)[C@@H](NC(=O)CNC(=O)[C@H](CCC(N)=O)NC(=O)C(C)(C)NC(=O)[C@@H](N)Cc1ccc(O)cc1)[C@@H](C)O)[C@@H](C)O)[C@@H](C)CC)[C@@H](C)CC)C(=O)N[C@@H](CCC(=O)O)C(=O)NCC(=O)NCC(=O)N1CCC[C@H]1C(=O)N[C@@H](CO)C(=O)N[C@@H](CO)C(=O)NCC(=O)N[C@@H](C)C(=O)N1CCC[C@H]1C(=O)N1CCC[C@H]1C(=O)N1CCC[C@H]1C(=O)N[C@@H](CO)C(=O)NCC(=O)N[C@@H](CO)C(=O)N[C@@H](CCC(=O)O)C(=O)N[C@@H](CCC(=O)O)C(N)=O [Example 704]
EC50 [1]: 0.013 nM
EC50 [2]: 33.9 nM
EC50 [3]: 0.287 nM
EC50 [4]: 1.2 nM
EC50 [5]: 1.85 nM
EC50 [6]: 239 nM

CC[C@H](C)[C@H](NC(=O)[C@H](CC(C)C)NC(=O)[C@](C)(Cc1ccc(O)cc1)NC(=O)[C@@H](CCC(=O)O)NC(=O)[C@@H](NC(=O)[C@H](Cc1ccccc1)NC(=O)[C@H](CCC(=O)O)NC(=O)C(C)(C)NC(=O)[C@H](C)NC(=O)[C@H](C)NC(=O)[C@H](CCCCNC(=O)COCCOCCNC(=O)CC[C@H](NC(=O)CCCCCCCCCCCCCCCCC(=O)O)C(=O)O)NC(=O)[C@H](CCCN)NC(=O)[C@H](CC(=O)O)NC(=O)[C@H](CC(C)C)NC(=O)[C@](C)(CC(C)C)NC(=O)[C@@H](NC(=O)[C@](C)(CO)NC(=O)[C@H](Cc1ccncc1)NC(=O)[C@H](CC(=O)O)NC(=O)[C@H](CO)NC(=O)[C@@H](NC(=O)[C@](C)(Cc1ccccc1F)NC(=O)[C@@H](NC(=O)CNC(=O)[C@H](CCC(N)=O)NC(=O)C(C)(C)NC(=O)[C@@H](N)Cc1ccc(O)cc1)[C@@H](C)O)[C@@H](C)O)[C@@H](C)CC)[C@@H](C)CC)C(=O)N[C@@H](CCC(=O)O)C(=O)NCC(=O)NCC(=O)N1CCC[C@H]1C(=O)N[C@@H](CO)C(=O)N[C@@H](CO)C(=O)NCC(=O)N[C@@H](CCC(=O)O)C(=O)N1CCC[C@H]1C(=O)N1CCC[C@H]1C(=O)N1CCC[C@H]1C(=O)N[C@@H](CO)C(=O)NCC(=O)N[C@@H](CO)C(N)=O [Example 707]
EC50 [1]: 0.0107 nM
EC50 [2]: 30.6 nM
EC50 [3]: 0.248 nM
EC50 [4]: 1.05 nM
EC50 [5]: 1.06 nM
EC50 [6]: 199 nM

CC[C@H](C)[C@H](NC(=O)[C@H](CC(C)C)NC(=O)[C@](C)(Cc1ccc(O)cc1)NC(=O)[C@@H](CCC(=O)O)NC(=O)[C@@H](NC(=O)[C@H](Cc1ccccc1)NC(=O)[C@H](CCC(=O)O)NC(=O)C(C)(C)NC(=O)[C@H](C)NC(=O)[C@H](C)NC(=O)[C@H](CCCCNC(=O)COCCOCCNC(=O)CC[C@H](NC(=O)CCCCCCCCCCCCCCCCC(=O)O)C(=O)O)NC(=O)[C@H](CCCN)NC(=O)[C@H](CC(=O)O)NC(=O)[C@H](CC(C)C)NC(=O)[C@](C)(CC(C)C)NC(=O)[C@@H](NC(=O)[C@](C)(CO)NC(=O)[C@H](Cc1ccncc1)NC(=O)[C@H](CC(=O)O)NC(=O)[C@H](CO)NC(=O)[C@@H](NC(=O)[C@](C)(Cc1ccccc1F)NC(=O)[C@@H](NC(=O)CNC(=O)[C@H](CCC(N)=O)NC(=O)C(C)(C)NC(=O)[C@@H](N)Cc1ccc(O)cc1)[C@@H](C)O)[C@@H](C)O)[C@@H](C)CC)[C@@H](C)CC)C(=O)N[C@@H](CCC(=O)O)C(=O)NCC(=O)NCC(=O)N1CCC[C@H]1C(=O)N[C@@H](CO)C(=O)N[C@@H](CO)C(=O)NCC(=O)N[C@@H](CCC(=O)O)C(=O)N1CCC[C@H]1C(=O)N1CCC[C@H]1C(=O)N1CCC[C@H]1C(=O)N[C@@H](CO)C(=O)NCC(=O)N[C@@H](CO)C(=O)N[C@H](CCC(=O)O)C(N)=O [Example 720]
EC50 [1, 7]: 0.0103 nM
EC50 [2, 8]: 28.3 nM
EC50 [3, 7]: 0.245 nM
EC50 [4, 8]: 1.02 nM
EC50 [5, 7]: 1.78 nM
EC50 [6, 8]: 239 nM
